Target: T1, human skin chymase (Homo sapiens, UniProt P23946)
T1 construct: using human skin chymase (Cortex Biochem); purchased Cortex Biochem
T1 sequence (P23946 22-247): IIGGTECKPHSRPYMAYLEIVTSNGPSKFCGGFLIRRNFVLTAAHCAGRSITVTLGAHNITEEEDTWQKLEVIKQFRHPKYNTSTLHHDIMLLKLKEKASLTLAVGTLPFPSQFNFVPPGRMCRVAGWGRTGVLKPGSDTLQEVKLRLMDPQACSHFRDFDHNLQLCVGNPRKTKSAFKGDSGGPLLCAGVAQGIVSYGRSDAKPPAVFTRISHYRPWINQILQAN
Assay: Enzyme-catalyzed hydrolysis assay (chymase inhibition)
Assay type: biochemical
Conditions: 10 nM enzyme, 0.7 mM Suc-Ala-Ala-Pro-Phe-pNa, pH 8.0, 37° C., 30 minutes
Method: Enzyme-catalyzed hydrolysis rates were measured spectro-photometrically using human skin chymase (Cortex Biochem), a chromogenic substrate (Suc-Ala-Ala-Pro-Phe-pNa) (Bachem) in aqueous buffer (450 mM Tris, 1800 mM NaCl, pH 8.0), and a microplate reader (Molecular Devices). […] Percent inhibition was calculated by comparing the initial reaction slopes of the samples without inhibitor to those with inhibitor. IC50 values were determined using a four parameter fit logistics model. The term “NT” indicates a compound that was not tested.

Row | Compound | IC50
1 | CP(=O)(O)C(C(=O)N/C=C/c1cc(Cl)cc(Cl)c1)c1csc2ccc(Cl)cc12 (stereo not drawn) [Cpd 170] | 0.0031 µM
2 | CC(C)n1cc(C(C(=O)Nc2ccc3ccccc3c2)P(=O)(O)O)c2ccccc21 (stereo not drawn) [Cpd 77] | 1.48 ± 0.45 µM
3 | O=C(Nc1cc2ccccc2cc1CNCc1ccccc1)C(c1cccc2ccccc12)P(=O)(O)O (stereo not drawn) [Cpd 107] | 4.3 ± 0.03 µM
4 | O=C(Nc1cc2ccccc2cc1C(=O)N1CCC(S(=O)(=O)c2ccccc2)C1)C(c1cccc2ccccc12)P(=O)(O)O (stereo not drawn) [Cpd 103] | 3.63 µM
5 | O=C(NCc1ccccc1)c1cc2ccccc2cc1NC(=O)C(c1cccc2ccccc12)P(=O)(O)O (stereo not drawn) [Cpd 119, [(3-Benzylcarbamoyl-naphthalen-2-ylcarbamoyl)-naphthalen-1-yl-methyl]-phosphonic acid] | 5.8 µM
6 | CP(=O)(O)C(C(=O)N/C=C/c1ccccc1F)c1csc2ccc(Cl)cc12 (stereo not drawn) [Cpd 21] | 0.08 ± 0.02 µM
7 | CP(=O)(O)C(C(=O)Nc1ccc2ccccc2c1)c1c(C(=O)O)sc2ccccc12 (stereo not drawn) [Cpd 118] | 5.72 ± 0.013 µM
8 | Cc1ccc2scc(C(C(=O)Nc3ccc4ccccc4c3)P(=O)(O)O)c2c1 (stereo not drawn) [Cpd 5] | 0.019 ± 0.005 µM
9 | CN(Cc1ccccc1)Cc1cc2ccccc2cc1NC(=O)C(c1cccc2ccccc12)P(=O)(O)O (stereo not drawn) [Cpd 142] | 9.54 ± 4.2 µM
10 | O=C(Nc1ccc2ccccc2c1)C(c1csc2ccc(Cl)cc12)P(=O)(O)CCCc1ccccc1 (stereo not drawn) [Cpd 48] | 0.421 ± 0.151 µM
11 | O=C(Nc1ccc2ccccc2c1)C(CO)c1csc2ccc(Cl)cc12 (stereo not drawn) [Cpd 136, 2-(5-Chloro-benzo[b]thiophen-3-yl)-3-hydroxy-N-naphthalen-2-yl-propionamide] | 8.63 ± 0.81 µM
12 | O=C(Nc1ccc2ncsc2c1)C(c1csc2ccc(Cl)cc12)P(=O)(O)O (stereo not drawn) [Cpd 30] | 0.17 ± 0.01 µM
13 | CP(=O)(O)C(C(=O)NC=Cc1ccccc1N)c1csc2ccc(Cl)cc12 (stereo not drawn) [Cpd 151, [[2-(2-Amino-phenyl)-vinylcarbamoyl]-(5-chloro-benzo[b]thiophen-3-yl)-methyl]-methyl-phosphinic acid] | 0.4 ± 0.12 µM
14 | CP(=O)(O)C(C(=O)Nc1ccc2ccccc2c1)c1c(C(=O)N2CCC(c3ccccc3)CC2)sc2ccccc12 (stereo not drawn) [Cpd 32, Methyl-{(naphthalen-2-ylcarbamoyl)-[2-(4-phenyl-piperidine-1-carbonyl)-benzo[b]thiophen-3-yl]-methyl}-phosphinic acid] | 0.21 ± 0.01 µM
15 | COc1ccc2c(c1)c(C(C(=O)Nc1ccc3ccccc3c1)P(=O)(O)O)cn2C (stereo not drawn) [Cpd 74] | 1.39 ± 0.554 µM
16 | O=C(Nc1ccc2ccccc2c1)C(c1cn(-c2ccccc2)c2ccccc12)P(=O)(O)O (stereo not drawn) [Cpd 82, [(Naphthalen-2-ylcarbamoyl)-(1-phenyl-1H-indol-3-yl)-methyl]-phosphonic acid] | 1.7 ± 0.41 µM
17 | O=C(Nc1ccc2ccccc2c1)C(c1csc2cccc(Br)c12)P(=O)(O)O (stereo not drawn) [Cpd 99] | 2.96 ± 1.18 µM
18 | O=C(Nc1ccc2sccc2c1)C(c1csc2ccc(Cl)cc12)P(=O)(O)O (stereo not drawn) [Cpd 55] | 0.52 ± 0.51 µM
19 | CP(=O)(O)C(C(=O)NC=Cc1cccc(C(F)(F)F)c1)c1csc2ccc(Cl)cc12 (stereo not drawn) [Cpd 152] | 0.13 ± 0.03 µM
20 | O=C(Nc1ccc2cc(Br)ccc2c1)C(c1csc2ccc(Cl)cc12)P(=O)(O)O (stereo not drawn) [Cpd 67] | 0.92 ± 0.25 µM
21 | O=P(O)(O)C(C(=S)Nc1ccc2ccccc2c1)c1csc2ccc(Cl)cc12 (stereo not drawn) [Cpd 45, [(5-Chloro-benzo[b]thiophen-3-yl)-(naphthalen-2-ylthiocarbamoyl)-methyl]-phosphonic acid] | 0.371 ± 0.11 µM
22 | CP(=O)(O)C(C(=O)NC=Cc1ccccc1NC(N)=O)c1csc2ccc(Cl)cc12 (stereo not drawn) [Cpd 158, {(5-Chloro-benzo[b]thiophen-3-yl)-[2-(2-ureido-phenyl)-vinylcarbamoyl]-methyl}-methyl-phosphinic acid] | 6 ± 1.9 µM
23 | CP(=O)(O)C(C(=O)Nc1ccc2ccccc2c1)c1c(C(=O)NCc2ccccc2)sc2ccccc12 (stereo not drawn) [Cpd 127] | 7 ± 1.1 µM
24 | CP(=O)(O)C(C(=O)N/C=C/c1cccc(OC(F)(F)F)c1)c1csc2ccc(Cl)cc12 (stereo not drawn) [Cpd 153] | 0.06 ± 0.01 µM

— patent US7459444B2, “Inhibitors of chymase” (Janssen Pharmaceutica N.V., priority 2004, dated 2008)
